Test results taken from US12673050B2, “Compositions and their use for the treatment of A1-antitrypsin deficiency” (Centessa Pharmaceuticals (UK) Limited, priority 2021, dated 2026).

What was measured:
[1] = target: T1, human M A1AT (Homo sapiens, UniProt P01009); test: A1AT cell secretion assay using HEK-M cells (ELISA); format: cell-based; conditions: 10 μM, 48 h
T1 construct: expressed in transfected cells; host or cells: HEK-M cells (HEK-EBNA with M A1AT plasmid)
Procedure: HEK-M cells, a human embryonic kidney cell line stably transfected with M A1AT, were plated into 96 well plates (3.0×10^5 cells/ml with 200 μl of media/well) overnight at 37° C. in a humidified atmosphere containing 5% CO2. Following incubation cells were washed with 200 μl serum-free media three times and media was replaced with serum-free media containing either vehicle, 10 μM suberanilohydroxamic acid (SAHA), (S)-1-((2-(trifluoromethyl)phenyl)sulfonyl)piperidine-3-carboxylic acid (at 10 μM) or (R)-1-((2-(trifluoromethyl)phenyl)sulfonyl)piperidine-3-carboxylic acid (at 10 μM) in replicates of six for 48 h in a 37° C. incubator in a final volume of 200 μl. At the end of the incubation step the supernatants were removed from the wells, centrifuged at 1000×g at 4° C. for 10 min and were assayed for human A1AT levels by ELISA (Human Serpin A1/α1 antitrypsin duo set ELISA, R& D Systems, DY1268) per manufacturer's instructions.
Briefly, a 96 well plate was coated with human A1AT capture antibody overnight at room temperature (1:180 dilution from stock, 100 μl final volume/well). The capture antibody was then removed and wells washed three times with 300 μl wash buffer (0.05% Tween in PBS) and then 200 μl reagent diluent (25% Tween 20 in PBS) was incubated in each well for 1 h at room temperature. Diluted samples, standards (125, 250, 500, 1000, 2000, 4000 and 8000 pg/ml A1AT) or blanks were then added to each well in duplicate and the plates were covered with a plate sealer and left at room temperature for 2 h. […] After which, 50 μl stop solution (2M H2SO4) was added and optical density (OD) of each well was read at 450 nm with 570 nm blank subtracted from each well using a microplate reader. A 4 parameter logistic curve was constructed using GraphPad Prism 7 and A1AT concentrations were determined in each sample by interpolation from a standard curve and multiplying by the appropriate dilution factor.
The amount of human A1AT secreted from transfected HEK-EBNA cells into the media was measured by ELISA. […]

[2] = Mouse hepatocyte stability; format: in vitro ADME; conditions: male, C57BL6, cryopreserved hepatocytes in suspension, 37° C.; for hepatocyte CLint: read-out: intrinsic clearance (CLint) in mouse hepatocytes
Procedure: (§1) The intrinsic clearance (CLint) and half-life of (S)-1-((2-(trifluoromethyl)phenyl)sulfonyl)piperidine-3-carboxylic acid and (R)-1-((2-(trifluoromethyl)phenyl)sulfonyl)piperidine-3-carboxylic acid were measured in a hepatocyte suspension of cryopreserved male C57BL6 mouse hepatocytes or a mixed hepatocyte suspension of cryopreserved human hepatocytes. Briefly, the compounds were incubated with hepatocyte suspensions at 37° C. over a time course and the remaining compound at each time point was assessed by mass spectrometry (UPLC-MS/MS). CLint in mouse hepatocytes was <3 μl/min/10^6 cells and in human hepatocytes was <3 μl/min/10^6 cells for both compounds.

[3] = Human hepatocyte stability; format: in vitro ADME; conditions: cryopreserved hepatocytes, mixed human hepatocyte suspension, 37° C.; for hepatocyte CLint: read-out: intrinsic clearance (CLint) in human hepatocytes
Procedure: as §1

[4] = Plasma protein binding by rapid equilibrium dialysis, mouse plasma; format: in vitro ADME; conditions: 37° C.
Procedure: (§2) The extent to which (S)-1-((2-(trifluoromethyl)phenyl)sulfonyl)piperidine-3-carboxylic acid and (R)-1-((2-(trifluoromethyl)phenyl)sulfonyl)piperidine-3-carboxylic acid bound to plasma proteins such as albumin and alpha-1 acid glycoprotein within human or mouse blood was determined by rapid equilibrium dialysis. Compounds were incubated at 5 μM for 4 hours at 37° C. Plasma protein binding in mouse plasma was 78.1% and in human plasma was 91.5% for (S)-1-((2-(trifluoromethyl)phenyl)sulfonyl)piperidine-3-carboxylic acid. Plasma protein binding in mouse plasma was 83.8% and in human plasma was 90.5% for (R)-1-((2-(trifluoromethyl)phenyl)sulfonyl)piperidine-3-carboxylic acid.

[5] = Plasma protein binding by rapid equilibrium dialysis, human plasma; format: in vitro ADME; conditions: 37° C.
Procedure: as §2

[6] = target: T2, CYP 1A2 (Homo sapiens, UniProt P05177); test: CYP inhibition, E. coli CYPEX membranes with probe substrates; format: in vitro ADME
T2 construct: purchased CYPEX; host or cells: E. coli
T2 sequence (P05177 1-516): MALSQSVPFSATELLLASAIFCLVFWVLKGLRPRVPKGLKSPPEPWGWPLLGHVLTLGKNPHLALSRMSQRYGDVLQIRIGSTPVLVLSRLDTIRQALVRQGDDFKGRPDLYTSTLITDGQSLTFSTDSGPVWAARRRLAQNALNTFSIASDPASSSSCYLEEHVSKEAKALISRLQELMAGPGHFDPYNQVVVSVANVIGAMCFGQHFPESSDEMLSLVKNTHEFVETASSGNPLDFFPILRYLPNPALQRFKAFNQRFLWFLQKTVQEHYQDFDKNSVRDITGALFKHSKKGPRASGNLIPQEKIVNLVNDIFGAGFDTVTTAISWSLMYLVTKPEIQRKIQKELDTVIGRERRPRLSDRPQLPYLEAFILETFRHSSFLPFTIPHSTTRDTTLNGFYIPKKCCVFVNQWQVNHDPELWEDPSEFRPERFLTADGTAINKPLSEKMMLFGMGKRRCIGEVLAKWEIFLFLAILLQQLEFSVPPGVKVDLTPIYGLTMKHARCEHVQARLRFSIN
Procedure: (§3) Using E. coli CYPEX membranes in combination with specific probe substrates, the inhibition of individual CYPs by (S)-1-((2-(trifluoromethyl)phenyl)sulfonyl)piperidine-3-carboxylic acid and (R)-1-((2-(trifluoromethyl)phenyl)sulfonyl)piperidine-3-carboxylic acid was assessed (see Weaver et al., 2003, Drug Metab Dispos 31:7, 955-966).

[7] = target: T3, CYP 2C19 (Homo sapiens, UniProt P33261); test: as above; format: in vitro ADME
T3 construct: purchased CYPEX; host or cells: E. coli
Procedure: as §3

[8] = target: T4, CYP 2C9 (Homo sapiens, UniProt P11712); test: as above; format: in vitro ADME
T4 construct: purchased CYPEX; host or cells: E. coli
Procedure: as §3

[9] = target: T5, CYP 2D6 (Homo sapiens, UniProt P10635); test: as above; format: in vitro ADME
T5 construct: purchased CYPEX; host or cells: E. coli
Procedure: as §3

[10] = target: T6, CYP 3A4 (Homo sapiens, UniProt P08684); test: as above; format: in vitro ADME
T6 construct: purchased CYPEX; host or cells: E. coli
Procedure: as §3

T6 sequence (P08684 whole entry): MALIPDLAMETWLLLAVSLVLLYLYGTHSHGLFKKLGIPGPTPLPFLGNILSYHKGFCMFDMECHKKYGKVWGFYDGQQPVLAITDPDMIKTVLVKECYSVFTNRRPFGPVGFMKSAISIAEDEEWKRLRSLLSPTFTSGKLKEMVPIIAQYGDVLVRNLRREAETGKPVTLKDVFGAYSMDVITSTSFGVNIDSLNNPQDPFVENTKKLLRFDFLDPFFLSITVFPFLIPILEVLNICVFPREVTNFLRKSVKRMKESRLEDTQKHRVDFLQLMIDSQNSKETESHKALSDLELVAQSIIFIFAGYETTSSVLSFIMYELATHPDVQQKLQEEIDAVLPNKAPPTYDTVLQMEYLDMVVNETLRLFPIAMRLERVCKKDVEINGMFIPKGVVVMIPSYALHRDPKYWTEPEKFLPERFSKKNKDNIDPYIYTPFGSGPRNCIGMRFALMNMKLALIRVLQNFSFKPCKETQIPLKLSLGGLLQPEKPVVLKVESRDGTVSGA
T4 sequence (P11712 whole entry): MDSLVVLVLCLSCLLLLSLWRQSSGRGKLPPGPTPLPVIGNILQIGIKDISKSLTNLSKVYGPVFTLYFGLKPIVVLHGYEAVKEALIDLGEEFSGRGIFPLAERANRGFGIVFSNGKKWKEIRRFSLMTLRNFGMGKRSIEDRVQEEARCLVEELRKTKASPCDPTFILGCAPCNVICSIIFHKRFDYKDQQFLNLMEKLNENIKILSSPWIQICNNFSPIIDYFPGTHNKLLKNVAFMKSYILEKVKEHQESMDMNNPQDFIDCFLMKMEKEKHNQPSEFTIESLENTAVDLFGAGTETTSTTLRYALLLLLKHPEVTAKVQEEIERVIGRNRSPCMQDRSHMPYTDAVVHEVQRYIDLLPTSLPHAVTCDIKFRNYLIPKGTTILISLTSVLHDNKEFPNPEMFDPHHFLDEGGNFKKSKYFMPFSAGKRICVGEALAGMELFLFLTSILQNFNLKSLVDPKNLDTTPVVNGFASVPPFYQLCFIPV
T1 sequence (P01009 25-418): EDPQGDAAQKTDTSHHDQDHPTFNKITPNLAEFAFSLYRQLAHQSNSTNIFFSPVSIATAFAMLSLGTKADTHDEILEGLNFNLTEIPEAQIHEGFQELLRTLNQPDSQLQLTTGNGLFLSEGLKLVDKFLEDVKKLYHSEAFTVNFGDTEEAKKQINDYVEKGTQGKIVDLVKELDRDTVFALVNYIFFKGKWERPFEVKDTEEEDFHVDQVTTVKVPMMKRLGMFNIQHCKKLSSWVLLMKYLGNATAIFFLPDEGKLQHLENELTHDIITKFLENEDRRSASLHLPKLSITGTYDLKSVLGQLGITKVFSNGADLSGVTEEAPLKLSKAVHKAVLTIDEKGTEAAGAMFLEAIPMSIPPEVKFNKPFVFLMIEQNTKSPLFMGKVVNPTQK
T5 sequence (P10635 whole entry): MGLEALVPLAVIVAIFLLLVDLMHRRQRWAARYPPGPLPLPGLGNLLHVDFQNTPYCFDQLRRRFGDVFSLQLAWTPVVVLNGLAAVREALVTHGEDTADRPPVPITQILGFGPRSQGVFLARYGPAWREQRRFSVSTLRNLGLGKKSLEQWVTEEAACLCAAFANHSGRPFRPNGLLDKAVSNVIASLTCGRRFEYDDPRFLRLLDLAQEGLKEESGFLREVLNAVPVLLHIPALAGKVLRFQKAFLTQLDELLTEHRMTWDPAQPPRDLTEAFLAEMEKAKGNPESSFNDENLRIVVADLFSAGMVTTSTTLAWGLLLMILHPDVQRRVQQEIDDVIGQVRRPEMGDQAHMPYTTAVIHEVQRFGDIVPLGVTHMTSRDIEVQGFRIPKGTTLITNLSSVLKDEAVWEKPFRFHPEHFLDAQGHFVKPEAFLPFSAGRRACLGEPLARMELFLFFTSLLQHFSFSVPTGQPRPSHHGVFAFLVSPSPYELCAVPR
T3 sequence (P33261 whole entry): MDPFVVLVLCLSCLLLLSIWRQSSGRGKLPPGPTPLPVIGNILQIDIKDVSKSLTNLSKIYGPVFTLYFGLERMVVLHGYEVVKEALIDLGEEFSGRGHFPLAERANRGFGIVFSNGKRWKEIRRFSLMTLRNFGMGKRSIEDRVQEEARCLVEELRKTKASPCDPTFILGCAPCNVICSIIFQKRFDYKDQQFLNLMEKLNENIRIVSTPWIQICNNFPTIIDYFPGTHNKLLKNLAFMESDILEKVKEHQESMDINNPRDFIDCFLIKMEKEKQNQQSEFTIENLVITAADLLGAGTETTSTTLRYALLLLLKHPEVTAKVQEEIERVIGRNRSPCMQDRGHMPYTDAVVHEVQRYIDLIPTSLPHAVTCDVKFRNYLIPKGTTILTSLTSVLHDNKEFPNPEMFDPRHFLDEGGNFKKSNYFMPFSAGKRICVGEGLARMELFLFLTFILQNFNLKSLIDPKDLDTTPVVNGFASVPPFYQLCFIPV

Row | half-life [2] | hepatocyte CLint [2] | half-life [3] | hepatocyte CLint [3] | fraction unbound at 4 h, 5 μM [4] | fraction unbound at 4 h, 5 μM [5] | IC50 [6] | IC50 [7] | IC50 [8] | IC50 [9] | IC50 [10] | Compound | secretion of human M A1AT into cell supernatant [1]
1 | > 7.67 h | < 3 µL/min/1e6 cells | > 7.67 h | < 3 µL/min/1e6 cells | 0.162 | 0.095 | > 50 µM | > 50 µM | > 50 µM | > 50 µM | > 50 µM | O=C(O)[C@@H]1CCCN(S(=O)(=O)c2ccccc2C(F)(F)F)C1 [(R)-1-((2-(Trifluoromethyl)phenyl)sulfonyl)piperidine-3-carboxylic acid] | does not stimulate secretion of human M A1AT
2 | > 7.67 h | < 3 µL/min/1e6 cells | > 7.67 h | < 3 µL/min/1e6 cells | 0.219 | 0.085 | > 50 µM | > 50 µM | > 50 µM | > 50 µM | > 50 µM | O=C(O)[C@H]1CCCN(S(=O)(=O)c2ccccc2C(F)(F)F)C1 [(S)-1-((2-(Trifluoromethyl)phenyl)sulfonyl)piperidine-3-carboxylic acid] | does not stimulate secretion of human M A1AT
